From patent US10478464B2, “Compositions and methods of use” (priority 2009, dated 2019) come the findings set out here.

Data set [1] in a line: Water solubility (statement). The class given is physicochemical.
Data set [2] deals with leukemia cell lines (CCRF-CEM, K-562, SR, MOLT-4, RPMI-8226, HL-60(TB)). The experiment in a line: NCI 60 human tumor cell line screen (MTT), leukemia lines. In kind it is cell-based. The conditions noted are these: 10 μM.
A short description of data set [3]: Maximal tolerated dose (MTD), single IV bolus. In kind it is in vivo. On the procedure:
The purpose of this study was to determine the maximum tolerated dose of 8-HHA following intravenous (IV) administration in ICR mice. A racemic mixture of 8-HHA, placebo, and vehicle were administered to 20 ICR female mice with weight of 25-30 grams, respectively. The 8-HHA was formulated in nanolipid at concentration of 0, 10, 20 and 40 mg/ml. There were 4 animals per group and they were injected with 0, 10, 20 and 40 mg/kg dose of 8-HHA Mice were given a single bolus dose via the tail vein according to group assignment. One week after dosing mice were sacrificed. Daily clinical observations were performed 15 minutes and 1 hour post dose. The mice were observed daily for any adverse effects until necropsy on study day 8. Body weights were recorded for all the mice prior to test substance administration, and every other day throughout the test period. This entire study was performed at Toxikon Corporation, Bedford, Mass.

Data set [4] concerns PLC/PRF/5 liver cancer cell line. Put plainly: Cell survival, colorimetric MTT assay, PLC/PRF/5. The conditions noted are these: 100 μM, 72 hours. In kind it is cell-based. On the procedure:
2) Against the liver cancer cell lines: The effect of the racemic mixture of 8-HHA and that of the individual enantiomers, namely S and R enantiomers, were examined on survival of PLC/PRF/5 (also referred to as “PLC-5” or “PLC5”), Hep3B and SNU449 (also referred to as “SNU”) liver cancer cell lines. The cell viability was examined in the exponential growth phase with 100 μM of 8-HHA for 72 hours using colorimetric MTT assay. In separate assays, PLC-5 cells were treated with different concentrations of S-enantiomer of 8-HHA ranging from 20-100 μM for 72 hours.

Data set [5] relates to HOP-92 lung cancer cell lines. The experiment in a line: Cell survival, colorimetric MTT assay, HOP-92. The note with it: 100 μM, 72 hours. In kind it is cell-based, human. On the procedure: 1) Against the lung cancer cell lines: The effect of the racemic mixture of 8-HHA and that of the individual enantiomers, namely S and R enantiomers, were examined on the survival of HOP-92 lung cancer cell lines. The cell viability was examined in the exponential growth phase with 100 μM of 8-HHA for 72 hours using colorimetric MTT assay. In separate assays, HOP-92 cells were treated with different concentrations of the S-enantiomer of 8-HHA ranging from 20-100 μM for 72 hours.

Data set [6] has as its system colorectal cancer cell lines (HCT-116, HCT-15, KM12). The experiment in a line: NCI 60 human tumor cell line screen (MTT), colorectal lines. The note with it: 10 μM; three out of 7 lines.
Method: The screening is a microplate cytotoxicity assays based on a simple colorimetric (MTT) assay which relies on the metabolic reduction of a tetrazolium dye in viable cells to a colored formazan product. A modified protocol was used for the screening of the compound and measures the inhibition of growth of various tumor cell lines. The 8-HHA tested in this assay was at the concentration of 10 μM.
The next data set relates to HOP92 cells. The experiment in a line: Lung cancer xenograft mouse model (HOP92). The class given is in vivo, BALB/c nu/nu mice. The conditions noted are these: for Mean ± SEM Tumor Volume (HOP-92): 10 mg/kg IP. From the text:
The purpose of this study was to determine anti tumor efficacy of 8-HHA in lung cancer using HOP92 cells.
Animals and care: Thirty BABL/c nude, non-pregnant and nulliparous female mice that are 5-6 weeks old and weighing 16-20 gms were used in this study. BALB/c nu/nu mice were used because they have been historically used in xenograft studies to test anti-tumor efficacy of drug candidates. Mice were acclimatized for minimum 5 days, under same conditions as for the actual test. Mice were housed at room temperature 68±5° F. with room Relative Humidity of 30-70%, air Exchanges per Hour of a minimum of 10 changes per hour, lights exposure of 12-hour light/dark cycle, full spectrum fluorescent lights. The mice were housed in groups in ventilated micro-isolator cages made up of polycarbonate. The mice were using autoclaved laboratory grade bedding and were provided ad libitum with irradiated pellets and autoclaved water. There were no known contaminants present in the feed, water, or bedding expected to interfere with the test data. The laboratory and animal rooms were maintained as limited-access facilities.
Route of injection and dose: 8-HHA was administered through intraperitoneal (IP) injection.
Tumor Induction: The cell line HOP92 were cultured according to recommended specifications at Vanas Oncology as above discussed in Example 20. Cells were trypizinized and counted using the Trypan-blue viability test using a hemocytometer. Cell counts in quadrants of the hemocytometer were converted to a cells/mL value, which will enable isolation of the appropriate number of cells per mouse. Each mouse was inoculated subcutaneously in the right flank region with 0.2 mL of a 50% RPMI/50% Matrigel™ mixture containing a suspension of tumor cells (5×10^6 cells/mouse). Tumors were observed twice weekly until well established. Tumor volume was calculated using the formula: Tumor weight (mg)=(a×b^2/2) where ‘b’ is the smallest diameter and ‘a’ is the largest diameter in millimeters.
Allocation of Animals: Once the established tumors reach a mean calculated volume of approximately 50-100 mg, the mice were randomized, using appropriate software, into treatment groups in order to reduce the variability of tumor sizes per group.
Pre Dose Procedure: Acclimated animals were weighed and observed for clinical signs of toxicity prior to dosing on Day 1.
The first day of dosing is Day 1. On Day 1,8-HHA, and vehicle injections are administered according to the study design in Table 9 below.
Post Dose Procedure: Following treatment, tumor and mouse body weight measurements were recorded twice weekly and gross observation was made at least once daily. Mice with tumors that were not palpable was considered complete regressions. Percentage of mice mortality and time of death were recorded for every group in the study. Animals may be defined as moribund and sacrificed if one or more of the following criteria are met: • Loss of body weight of 20% or greater in a 1 week period. • Mice that inhibit normal physiological function such as eating, drinking, mobility, and ability to urinate and/or defecate. • Tumors that exceed a maximum size of 2000 mg as measured by calipers. • Ulcerated tumors, or tumors that bleed or produce exudates. • Prolonged, excessive diarrhea leading to excessive weight loss (>20%). • Persistent wheezing and respiratory distress. • Prolonged or excessive pain or distress as defined by clinical observations such as: prostration, hunched posture, paralysis/paresis, distended abdomen, ulcerations, abscesses, seizures, and/or hemorrhages.

As for `CCCCCCCCC(O)CCCCCCC(=O)O` (racemic) [Sample 8-HHA, 8-hydroxy-palmitic acid], the water solubility entry in data set [1] is listed as “poorly water soluble”. In addition, in data set [2], the “suppressed growth of leukemia cell lines” value was 40-96%. The “tolerability / clinical abnormalities” value in data set [3] (10 mg/kg and 20 mg/kg IV) was “did not demonstrate any clinical abnormalities”. The “mice that died shortly after being dosed” value in data set [3] (high dose 40 mg/kg IV, 4 animals per group) is reported as “Two”. Besides, in data set [3] (mouse, in vivo, ICR female mice, single IV bolus, nanolipid formulation, read-out: maximum tolerated dose), the MTD at 8 days was found to be 20 mg/kg. For the same compound, in data set [3] (single IV bolus), the “body weight at day 6 and 8” value is on record as “did not vary from pre dose weight”. Besides, the “reduced the survival of PLC-5 cell line by” value in data set [4] came out at 52%. Further, the “reduced the survival of HOP92 cell lines by” value in data set [5] was determined as 25%. Moreover, the “growth suppression of colorectal cancer cell lines, in words” value in data set [6] was “moderate evidence of growth suppression”. Besides, the “Mean ± SEM Tumor Volume (HOP-92)” value is 88.78±28.61 mm^3 in the data set with HOP92 cells (Day 16) and 82.02±25.93 mm^3 with HOP92 cells (Day 18). Also, the “decrease in tumor volume vs control group” value in the data set with HOP92 cells (T1 10 mg/Kg, day 16) is on record as 58.6%; in the data set on HOP92 cells (T1 10 mg/Kg, day 18) it was 68.2%; in the data set with HOP92 cells (T2 100 mg/Kg, day 16), 56.5%; in the data set on HOP92 cells (T2 100 mg/Kg, day 18) it was 73.1%. Also, in the data set on HOP92 cells (both T1 (10 mg/Kg) and T2 (100 mg/Kg)), the “tumor growth inhibition, in words” value is recorded as “significantly inhibited tumor growth in mice from day 16”.
